Legend:
OCI-AML3 cells = experiment: In vitro proliferation (Cell Titer Glo), Compound 51 with decitabine and venetoclax, OCI-AML3; format: cell-based, human; parameters: Effect size (BIGL, HSA null model): scale not given here
Procedure: 3a) In Vitro Proliferation—Menin-MLL Inhibitor in Combination with a DNA Hypomethylating Agent (Decitabine) and a BCL2 Inhibitor (Venetoclax)
The effect of Compound 51 in combination with decitabine and venetoclax was determined in proliferation assays.
AML cell lines MOLM-13, OCI-AML3 and MV4-11 were purchased from DSMZ. MOLM-13 were grown in RPMI medium supplemented with 10% Fetal Bovine Serum (FBS) and 1% penicillin/streptomycin. MV4-11 cells were grown in IMDM medium supplemented with 10% FBS and 1% penicillin/streptomycin. OCI-AML3 cells were cultured in 80-90% alpha-MEM (without ribo- and deoxyribonucleosides)+10-20% FBS. All cell lines were cultured at 37° C. in 5% CO2 atmosphere.
AML cell lines (10×10^3 cells/well) were seeded in 96-well plates and grown for 6 days in serum (10%)-containing medium in the presence or absence of inhibitors at the indicated concentrations. Proliferation was analyzed by means of a Cell Titer Glo assay using the CellTiter 96 Aqueous One Solution Cell Proliferation Assay (Promega, Madison, WI, USA), according to the manufacturer's instructions. Data are mean with standard deviation from two to four independent experiments in technical triplicates.
R-based Biochemically Intuitive Generalized Loewe (BIGL) model implemented with a highest single agent (HSA) null model. Specifically, the BIGL methodology was applied to calculate drug-drug interactions (Van der Borght, K., Tourny, A., Bagdziunas, R. et al. BIGL: Biochemically Intuitive Generalized Loewe null model for prediction of the expected combined effect compatible with partial agonism and antagonism. Sci Rep 7, 17935 (2017); Thas, O., Tourny, A., Verbist, B., Hawinkel, S., Nazarov, M., Mutambanengwe, K., & Bijnens, L. Statistical detection of synergy: new methods and a comparative study. Pharmaceutical Statistics (2021)).
Synergy matrix results of the BIGL analysis of the cell line data with HSA as mean model calculated on the basis of the cellular metabolic activity using Cell Titer-Glo assay. Bootstrap confidence intervals are indicated. Effect sizes and their confidence intervals are shown. […] No significant average effect if zero is included in the interval.

[1] = system: MOLM-13 tumors in NSG mice; experiment: Efficacy (survival) in disseminated MOLM-13 (KMT2A-rearranged) IV model in NSG mice; format: in vivo
Procedure: 4) Efficacy of Menin-KMT2A Inhibitor in Combination with Venetoclax, and Optionally, Azacitidine, in MOLM-13 (KMT2A-Rearranged) IV Model in NSG Mice
Compound 51 was formulated in purified pyrogen-free deionized water, pH 4.0 and prepared to reach a total volume of 8 mL/kg. Doses were adjusted by individual body weight each day. Working stocks of Compound 51 were prepared once per week for each study and stored at 25° C.
Female NSG (NOD.Cg-Prkdc^scid Il2rg^tm1Wj1/SzJ) mice were used when they were approximately 6 to 8 weeks of age and weighed approximately 25 g. All animals could acclimate and recover from any shipping-related stress for a minimum of 7 days prior to experimental use. Autoclaved water and irradiated food were provided ad libitum, and the animals were maintained on a 12 hour light and dark cycle. Cages, bedding, and water bottles were autoclaved before use and changed weekly. The tissue culture and cell injection reagents are summarized below in Table 5.
Tumor Model and Cell Culture Method
Human AML MOLM-13 cells were cultured at 37° C., 5% CO2 in the indicated complete culture media (RPMI 1640+10% HI-FBS+2 mM L-glutamine+50 μg/ml Gentamycin). Cells were harvested while in logarithmic growth and resuspended in cold (4° C.) Roswell Park Memorial Institute (RPMI) 1640 in serum-free medium.
For the disseminated MOLM-13 model, each mouse received 1×10^5 cells via IV injection in a total volume of 0.2 mL using a 26-gauge needle.
Day 0 is the day of tumor cell implantation and study initiation.
Mice bearing IV MOLM-13 xenograft tumors were randomly assigned to treatment groups 5 days post-tumor cell engraftment.
Animals were monitored daily for clinical signs related to either compound toxicity or tumor burden (i.e., hind limb paralysis, lethargy, etc.).
For survival assessment, results were plotted as the percentage survival against days post tumor implant. Negative clinical signs and/or ≥20% body weight loss was used as a surrogate endpoint for death. Median survival was determined utilizing Kaplan-Meier survival analysis. The percent increased life span (ILS) was calculated as: ((median survival day of treated group−median survival day of control group)/median survival day of control group)×100. Animals failing to reach the surrogate endpoint due to adverse clinical signs or death unrelated to treatment were censored for the survival assessment. As defined by NCI criteria, ≅25% ILS is considered biologically significant. (Johnson J I et al. Br J Cancer. 2001. 84(10), 1424-1431).
Survival and body weight data were graphically represented utilizing Prism (Version 9). Statistical significance for body weights was evaluated as described above. Statistical significance was evaluated for Kaplan-Meier survival plots comparing therapeutic treatment group vs. appropriate vehicle-treated control using log-rank (Mantel-Cox) test in R software version 3.4.2. Differences between groups were considered significant when the p value was ≤0.05.
The disseminated MOLM-13 model described above was used to examine the efficacy of menin-KMT2A-inhibitor (formulated as described above) in combination with venetoclax (formulated in polyethylene glycol [PEG]-400/Phosal50/dimethyl sulfoxide [DMSO]), and optionally azacitidine (formulated in 0.9% saline). Treatment with compound(s) was initiated 5 days after cell injection. Compound 51 was given in the morning, and venetoclax or azacitidine was given in the afternoon, approximately 6-8 hr apart.

CC(=O)N1CCC(CN2CC[C@@H](Cc3cn(-c4ccc(F)cc4C(=O)N(C)C(C)C)c4cncc(C)c34)C2)CC1 [Compound 51]
Effect size (BIGL, HSA null model) (OCI-AML3 cells; Compound 51 0.001 μM, Decitabine 0.0015 μM, Venetoclax 0.0001 μM): −0.03
Effect size (BIGL, HSA null model) (OCI-AML3 cells; Compound 51 0.001 μM, Decitabine 0.015 μM, Venetoclax 0.001 μM): −0.1
Effect size (BIGL, HSA null model) (OCI-AML3 cells; Compound 51 0.001 μM, Decitabine 0.15 μM, Venetoclax 0.002 μM): −0.05
Effect size (BIGL, HSA null model) (OCI-AML3 cells; Compound 51 0.001 μM, Decitabine 1.5 μM, Venetoclax 0.02 μM): 0
Effect size (BIGL, HSA null model) (OCI-AML3 cells; Compound 51 0.001 μM, Decitabine 3 μM, Venetoclax 0.2 μM): 0
Effect size (BIGL, HSA null model) (OCI-AML3 cells; Compound 51 0.01 μM, Decitabine 0.0015 μM, Venetoclax 0.0001 μM): −0.01
Effect size (BIGL, HSA null model) (OCI-AML3 cells; Compound 51 0.01 μM, Decitabine 0.015 μM, Venetoclax 0.001 μM): −0.31
Effect size (BIGL, HSA null model) (OCI-AML3 cells; Compound 51 0.01 μM, Decitabine 0.15 μM, Venetoclax 0.002 μM): −0.06
Effect size (BIGL, HSA null model) (OCI-AML3 cells; Compound 51 0.01 μM, Decitabine 1.5 μM, Venetoclax 0.02 μM): −0.01
Effect size (BIGL, HSA null model) (OCI-AML3 cells; Compound 51 0.01 μM, Decitabine 3 μM, Venetoclax 0.2 μM): 0
Effect size (BIGL, HSA null model) (OCI-AML3 cells; Compound 51 0.05 μM, Decitabine 0.0015 μM, Venetoclax 0.0001 μM): 0.02
Effect size (BIGL, HSA null model) (OCI-AML3 cells; Compound 51 0.05 μM, Decitabine 0.015 μM, Venetoclax 0.001 μM): 0.01
Effect size (BIGL, HSA null model) (OCI-AML3 cells; Compound 51 0.05 μM, Decitabine 0.15 μM, Venetoclax 0.002 μM): −0.09
Effect size (BIGL, HSA null model) (OCI-AML3 cells; Compound 51 0.05 μM, Decitabine 1.5 μM, Venetoclax 0.02 μM): −0.01
Effect size (BIGL, HSA null model) (OCI-AML3 cells; Compound 51 0.05 μM, Decitabine 3 μM, Venetoclax 0.2 μM): 0
Effect size (BIGL, HSA null model) (OCI-AML3 cells; Compound 51 0.1 μM, Decitabine 0.0015 μM, Venetoclax 0.0001 μM): 0.03
Effect size (BIGL, HSA null model) (OCI-AML3 cells; Compound 51 0.1 μM, Decitabine 0.015 μM, Venetoclax 0.001 μM): 0.09
Effect size (BIGL, HSA null model) (OCI-AML3 cells; Compound 51 0.1 μM, Decitabine 0.15 μM, Venetoclax 0.002 μM): −0.06
Effect size (BIGL, HSA null model) (OCI-AML3 cells; Compound 51 0.1 μM, Decitabine 1.5 μM, Venetoclax 0.02 μM): −0.01
Effect size (BIGL, HSA null model) (OCI-AML3 cells; Compound 51 0.1 μM, Decitabine 3 μM, Venetoclax 0.2 μM): 0
Effect size (BIGL, HSA null model) (OCI-AML3 cells; Compound 51 0.5 μM, Decitabine 0.0015 μM, Venetoclax 0.0001 μM): 0.03
Effect size (BIGL, HSA null model) (OCI-AML3 cells; Compound 51 0.5 μM, Decitabine 0.015 μM, Venetoclax 0.001 μM): 0.12
Effect size (BIGL, HSA null model) (OCI-AML3 cells; Compound 51 0.5 μM, Decitabine 0.15 μM, Venetoclax 0.002 μM): 0.01
Effect size (BIGL, HSA null model) (OCI-AML3 cells; Compound 51 0.5 μM, Decitabine 1.5 μM, Venetoclax 0.02 μM): −0.01
Effect size (BIGL, HSA null model) (OCI-AML3 cells; Compound 51 0.5 μM, Decitabine 3 μM, Venetoclax 0.2 μM): 0
Effect size (BIGL, HSA null model) (OCI-AML3 cells; Compound 51 1 μM, Decitabine 0.0015 μM, Venetoclax 0.0001 μM): 0.02
Effect size (BIGL, HSA null model) (OCI-AML3 cells; Compound 51 1 μM, Decitabine 0.015 μM, Venetoclax 0.001 μM): 0.11
Effect size (BIGL, HSA null model) (OCI-AML3 cells; Compound 51 1 μM, Decitabine 0.15 μM, Venetoclax 0.002 μM): 0
Effect size (BIGL, HSA null model) (OCI-AML3 cells; Compound 51 1 μM, Decitabine 1.5 μM, Venetoclax 0.02 μM): 0
Effect size (BIGL, HSA null model) (OCI-AML3 cells; Compound 51 1 μM, Decitabine 3 μM, Venetoclax 0.2 μM): 0.03
combination effect on proliferation (in words) (OCI-AML3 cells; Compound 51 with Decitabine in the presence of Venetoclax, OCI-AML3 (NPM1c), 6-day CellTiter-Glo): not antagonistically cytotoxic
lifespan, Compound 51 in combination with venetoclax compared to venetoclax alone ([1]; MOLM-13 tumor-bearing mice): statistically significant increased lifespan
lifespan, Compound 51 in combination with venetoclax plus azacitidine compared to doublet venetoclax plus azacitidine ([1]; MOLM-13 tumor-bearing mice): statistically significant increased lifespan
% ILS (increased life span) ([1]; NSG mice with established MOLM-13 tumors, 4 weeks treatment, azacitidine 2 mg/kg ip QD × 7, venetoclax 100 mg/kg po QD × 28, Compound 51 2 mg/kg po QD × 28 (Table 6)): 5%
